# Peptide text beside a SMILES is read from it. * marks the point of attachment. X1 = CC1(C)C(/C=C/C2=C(Oc3ccc(S(=O)(=O)O)cc3)C(=C\C=C3/N(CCCCCC(=O)NCCN4C(=O)CC(*)C4=O)c4ccc(S(=O)(=O)O)cc4C3(C)C)/CCC2)=[N+](CCCCS(=O)(=O)O)c2ccc(S(=O)(=O)[O-])cc21
# Biological target: T1, murine αvβ6 (Mus musculus, UniProt P43406+Q9Z0T9)
# T1 construct: purchased Bio-Techne
# T1 sequence (P43406 31-988 limits assumed): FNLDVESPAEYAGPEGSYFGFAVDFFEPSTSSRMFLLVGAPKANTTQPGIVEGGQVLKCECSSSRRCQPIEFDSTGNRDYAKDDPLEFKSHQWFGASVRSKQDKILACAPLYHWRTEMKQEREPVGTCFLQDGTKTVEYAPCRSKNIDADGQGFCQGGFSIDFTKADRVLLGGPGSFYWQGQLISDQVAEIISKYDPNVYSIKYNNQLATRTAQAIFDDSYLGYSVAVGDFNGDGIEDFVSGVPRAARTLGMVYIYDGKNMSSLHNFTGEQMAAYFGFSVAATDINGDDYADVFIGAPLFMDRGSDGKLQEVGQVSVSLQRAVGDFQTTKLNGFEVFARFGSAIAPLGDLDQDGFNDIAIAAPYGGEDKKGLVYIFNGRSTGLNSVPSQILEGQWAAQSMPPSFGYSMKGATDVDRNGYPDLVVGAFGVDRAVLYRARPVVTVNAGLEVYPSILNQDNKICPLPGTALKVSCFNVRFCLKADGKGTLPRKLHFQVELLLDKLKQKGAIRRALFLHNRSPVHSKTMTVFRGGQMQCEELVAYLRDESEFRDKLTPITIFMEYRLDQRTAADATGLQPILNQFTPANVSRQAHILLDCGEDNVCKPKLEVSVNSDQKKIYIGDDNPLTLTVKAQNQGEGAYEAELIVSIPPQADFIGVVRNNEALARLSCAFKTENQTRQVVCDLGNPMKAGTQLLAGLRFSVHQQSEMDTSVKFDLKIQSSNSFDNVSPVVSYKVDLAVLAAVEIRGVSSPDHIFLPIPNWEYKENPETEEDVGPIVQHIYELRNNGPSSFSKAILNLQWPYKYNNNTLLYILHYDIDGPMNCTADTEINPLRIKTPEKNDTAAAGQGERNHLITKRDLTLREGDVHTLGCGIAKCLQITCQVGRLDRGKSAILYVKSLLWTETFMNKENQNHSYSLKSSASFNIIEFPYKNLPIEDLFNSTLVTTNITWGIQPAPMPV
# T1 sequence (Q9Z0T9 22-707 limits assumed): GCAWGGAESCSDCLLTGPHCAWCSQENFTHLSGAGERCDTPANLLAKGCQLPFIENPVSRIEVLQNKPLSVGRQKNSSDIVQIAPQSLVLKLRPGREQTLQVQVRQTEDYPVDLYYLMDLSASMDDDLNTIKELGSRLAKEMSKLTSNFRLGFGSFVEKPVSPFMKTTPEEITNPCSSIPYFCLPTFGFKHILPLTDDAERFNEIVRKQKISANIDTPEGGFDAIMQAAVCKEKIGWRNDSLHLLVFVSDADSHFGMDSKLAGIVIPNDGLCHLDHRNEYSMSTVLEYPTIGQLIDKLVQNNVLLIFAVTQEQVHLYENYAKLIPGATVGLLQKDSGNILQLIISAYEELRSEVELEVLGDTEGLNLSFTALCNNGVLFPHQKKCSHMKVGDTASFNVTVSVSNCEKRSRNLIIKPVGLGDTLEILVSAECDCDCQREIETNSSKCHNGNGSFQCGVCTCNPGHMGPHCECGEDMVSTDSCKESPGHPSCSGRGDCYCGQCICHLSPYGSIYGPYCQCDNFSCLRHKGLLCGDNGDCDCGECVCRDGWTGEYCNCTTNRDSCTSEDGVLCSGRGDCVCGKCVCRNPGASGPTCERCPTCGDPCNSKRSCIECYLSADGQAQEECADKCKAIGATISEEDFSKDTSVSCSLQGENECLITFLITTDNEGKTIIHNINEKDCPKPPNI
# Assay: direct integrin binding assay of peptide-IRDye conjugates, murine αvβ6-coated plates
# Conditions: plates coated with recombinant murine αvβ6; conjugate 0.01-100 nM, 1 h; bound NIR fluorescence; mean ± SE, n = 3 experiments
# Experimental: The affinity of peptide-IRDye conjugates for αvβ6 and αvβ8 integrins was determined by a direct binding assay using microtiter plates coated with αvβ6 or αvβ8 (Bio-Techne). After 1 h of incubation, the plates were washed; bound fluorescence was quantified by scanning the plates with an Odyssey CLx near-infrared fluorescence imaging system (LI-COR).
# A control conjugate with a cysteine in place of the peptide was also prepared in parallel. The identity of the purified products, called 5a-IRDye, 2a-IRDye, and Cys-IRDye, was confirmed by mass spectrometry analysis (Table S1). In addition, the purity and identity of 5a-IRDye was monitored by liquid chromatography–mass spectrometry (LC-MS). […]
# that the product consist of a single peak at 230 and 735 nm with the expected molecular weight (purity >95%) (Figure S3A).
# The simplified molecular-input line-entry system (SMILES) of 5a-, 2a-, Cys- and 5a-Scr- […]
# The concentration of each conjugate was quantified by spectrophotometric analysis at 774 nm (molar absorption coefficient, 240,000 M-1, cm-1) (Figure S3B). The final yield of 5a-IRDye […]
# Binding of peptide-IRDye conjugates to avb6 and avb8 integrin
# The binding affinity of peptide-IRDye conjugates for human and murine avb6 and avb8 integrins was determined as follows: 96-well clear-bottom black microtiter plates (Corning® cat. 3601) were coated with 2 μg/ml avb6 or avb8 (50 µl/well), in Dulbecco’s phosphate-buffered saline containing Ca2+ and Mg2+ (DPBS) and left to incubate overnight at 4°C. […]
# The binding of peptide-IRDye conjugates to BxPC-3, 5M7101, and HUVECs cells was analyzed as follows. […]
# conjugates were added to the microtiterplates and incubated at room temperature for 1 h (see Experimental Section). After washing, bound fluorescence was measured using an Odyssey CLx (LI-COR) scanner. Representative images of the scanned plates and quantification of binding are shown. […]
row,EC50 [nM],SMILES
1,0.9 ± 0.35,CC[C@H](C)[C@H](NC(=O)[C@H](CCCNC(=N)N)NC(=O)[C@H](CC(C)C)NC(=O)[C@H](CC(=O)O)NC(=O)CNC(=O)[C@H](CCCNC(=N)N)NC(=O)[C@H](CC(C)C)NC(=O)[C@@H](NC(=O)[C@H](CCC(=O)O)NC(=O)[C@H](Cc1ccccc1)NC(=O)[C@@H](N)CSC1CC(=O)N(CCNC(=O)CCCCCN2C(=CC=C3CCCC(C=CC4=[N+](CCCCS(=O)(=O)[O-])c5ccc(S(=O)(=O)O)cc5C4(C)C)=C3Oc3ccc(S(=O)(=O)O)cc3)C(C)(C)c3cc(S(=O)(=O)O)ccc32)C1=O)[C@@H](C)O)C(=O)N[C@@H](CC(C)C)C(=O)N[C@@H](CO)C(=O)N[C@H](C(=O)N[C@@H](CC(C)C)C(=O)N[C@@H](CCCNC(=N)N)C(=O)N[C@H]1Cc2cn(nn2)CCCC[C@@H](C(=O)N[C@@H](CCCCN)C(=O)N[C@@H](CCC(=O)O)C(=O)N[C@@H](CC(C)C)C(=O)N[C@@H](CCC(N)=O)C(=O)N[C@@H](CC(=O)O)C(N)=O)NC(=O)[C@H](CC(C)C)NC(=O)[C@H](CC(N)=O)NC(=O)[C@H](CCC(N)=O)NC1=O)[C@@H](C)CC (stereo partly drawn) [5a-IRDye]
2,> 100,CC[C@H](C)[C@H](NC(=O)[C@H](CCCNC(=N)N)NC(=O)[C@H](CCC(=O)O)NC(=O)[C@H](CCC(=O)O)NC(=O)CNC(=O)[C@H](CCCNC(=N)N)NC(=O)[C@H](CC(C)C)NC(=O)[C@@H](NC(=O)[C@H](CCC(=O)O)NC(=O)[C@H](Cc1ccccc1)NC(=O)[C@@H](N)CSC1CC(=O)N(CCNC(=O)CCCCCN2/C(=C\C=C3\CCCC(/C=C/C4=[N+](CCCCS(=O)(=O)O)c5ccc(S(=O)(=O)[O-])cc5C4(C)C)=C3Oc3ccc(S(=O)(=O)O)cc3)C(C)(C)c3cc(S(=O)(=O)O)ccc32)C1=O)[C@@H](C)O)C(=O)N[C@@H](CC(C)C)C(=O)N[C@@H](CO)C(=O)N[C@H](C(=O)N[C@@H](CC(C)C)C(=O)N[C@@H](CCCNC(=N)N)C(=O)N[C@@H](Cc1c[nH]cn1)C(=O)N[C@@H](CCC(N)=O)C(=O)N[C@@H](CC(N)=O)C(=O)N[C@@H](CC(C)C)C(=O)N[C@@H](CC(C)C)C(=O)N[C@@H](CCCCN)C(=O)N[C@@H](CCC(=O)O)C(=O)N[C@@H](CC(C)C)C(=O)N[C@@H](CCC(N)=O)C(=O)N[C@@H](CC(=O)O)C(N)=O)[C@@H](C)CC (stereo partly drawn) [2a-IRDye] (H-C(X1)FETLRGEERILSILRHQNLLKELQD-NH2)
3,> 100,CC1(C)C(/C=C/C2=C(Oc3ccc(S(=O)(=O)O)cc3)C(=C\C=C3/N(CCCCCC(=O)NCCN4C(=O)CC(SC[C@H](N)C(=O)O)C4=O)c4ccc(S(=O)(=O)O)cc4C3(C)C)/CCC2)=[N+](CCCCS(=O)(=O)O)c2ccc(S(=O)(=O)[O-])cc21 (stereo partly drawn) [Cys-IRDye]

# From publication PMC9760430, “A stapled chromogranin A-derived peptide homes in on tumors that express αvβ6 or αvβ8 integrins” (International Journal of Biological Sciences, 2023)
